Data from patent publication US5232849A, “Bacteriocin from lactococcus lactis subspecies lactis” (Quest International Flavors & Food Ingredients Company …, priority 1992, dated 1993).

Columns and labels:
Experiment in all cases: Spectrum of antimicrobial activity
Design in all cases: key: + = inhibition; - = no inhibition
Settings in all cases: pure, titer 3200 AU/ml
S. mutans GS5 = assay type: cell-based, Streptococcus mutans
Procedure: (§1) Bacteriocin assay. To ascertain if the antibacterial substance is secreted into liquid medium, the cultures were grown in MRS broth and cell free filtrates of turbid cultures were made and the filtrate posted on a seeded semisolid agar overlay of the indicator. Antibacterial activity was quantitated by assigning arbitrary units. One arbitrary unit (AU) was defined as 5 μl of the culture supernatant yielding a definite, clear zone of inhibition on the indicator lawn. The titer was expressed as the reciprocal of the highest dilution of supernatant showing inhibition.

S. mutans V262 = assay type: cell-based, Streptococcus mutans
Procedure: as §1

L. fermentum 342 = assay type: cell-based, Lactobacillus fermentum
Procedure: as §1

L. fermentum 701 = assay type: cell-based, Lactobacillus fermentum
Procedure: as §1

L. casei 326 = assay type: cell-based, Lactobacillus casei
Procedure: as §1

L. casei 842 = assay type: cell-based, Lactobacillus casei
Procedure: as §1

L. lactis LLA 1.0 = assay type: cell-based, Lactococcus lactis
Procedure: as §1

L. lactis LLA 2.0 = assay type: cell-based, Lactococcus lactis
Procedure: as §1

B. subtilis RM125 = assay type: cell-based, Bacillus subtilis
Procedure: as §1

B. subtilis amylase^+ = assay type: cell-based, Bacillus subtilis
Procedure: as §1

L. monocytogenes 69 = assay type: cell-based
Procedure: as §1

L. monocytogenes 38 = assay type: cell-based
Procedure: as §1

L. monocytogenes 36 = assay type: cell-based
Procedure: as §1

L. monocytogenes 62 = assay type: cell-based
Procedure: as §1

L. monocytogenes 59 = assay type: cell-based
Procedure: as §1

L. monocytogenes 04 = assay type: cell-based
Procedure: as §1

L. monocytogenes 08 = assay type: cell-based
Procedure: as §1

P. pentosaceus FBB63C = assay type: cell-based, Pediococcus pentosaceus
Procedure: as §1

P. acidilactici D = assay type: cell-based, Pediococcus acidilactici
Procedure: as §1

P. acidilactici C = assay type: cell-based, Pediococcus acidilactici
Procedure: as §1

P. acidilactici PAC 1.0 = assay type: cell-based, Pediococcus acidilactici
Procedure: as §1

P. acidilactici B = assay type: cell-based, Pediococcus acidilactici
Procedure: as §1

P. acidilactici A = assay type: cell-based, Pediococcus acidilactici
Procedure: as §1

L. brevis 329 = assay type: cell-based, Lactobacillus brevis
Procedure: as §1

L. brevis 888 = assay type: cell-based, Lactobacillus brevis
Procedure: as §1

L. plantarum 355 = assay type: cell-based, Lactobacillus plantarum
Procedure: as §1

L. plantarum 346 = assay type: cell-based, Lactobacillus plantarum
Procedure: as §1

nisin [Nisin Pure]
inhibition of S. mutans GS5 (S. mutans GS5): + | inhibition of S. mutans V262 (S. mutans V262): - | inhibition of L. fermentum 342 (L. fermentum 342): + | inhibition of L. fermentum 701 (L. fermentum 701): + | inhibition of L. casei 326 (L. casei 326): + | inhibition of L. casei 842 (L. casei 842): + | inhibition of L. lactis LLA 1.0 (L. lactis LLA 1.0): + | inhibition of L. lactis LLA 2.0 (L. lactis LLA 2.0): + | inhibition of B. subtilis RM125 (B. subtilis RM125): + | inhibition of B. subtilis amylase^+ (B. subtilis amylase^+): + | inhibition of L. monocytogenes 69 (L. monocytogenes 69): + | inhibition of L. monocytogenes 38 (L. monocytogenes 38): + | inhibition of L. monocytogenes 36 (L. monocytogenes 36): + | inhibition of L. monocytogenes 62 (L. monocytogenes 62): + | inhibition of L. monocytogenes 59 (L. monocytogenes 59): + | inhibition of L. monocytogenes 04 (L. monocytogenes 04): + | inhibition of L. monocytogenes 08 (L. monocytogenes 08): + | inhibition of P. pentosaceus FBB63C (P. pentosaceus FBB63C): + | inhibition of P. acidilactici D (P. acidilactici D): + | inhibition of P. acidilactici C (P. acidilactici C): + | inhibition of P. acidilactici PAC 1.0 (P. acidilactici PAC 1.0): + | inhibition of P. acidilactici B (P. acidilactici B): + | inhibition of P. acidilactici A (P. acidilactici A): + | inhibition of L. brevis 329 (L. brevis 329): + | inhibition of L. brevis 888 (L. brevis 888): + | inhibition of L. plantarum 355 (L. plantarum 355): + | inhibition of L. plantarum 346 (L. plantarum 346): +
